The nature of this test: lipid peroxidation assay: protection of linoleic acid from UV light. As to conditions: antioxidant at the printed concentration (1.50%, 0.10%, 0.10%, combination 1.70%). The format is biochemical. As for the experimental part:
The following procedure tests the ability of antioxidants to protect lipids form the damaging effects of UV light. The antioxidants to be tested are morus alba (“Mulberry Concentrate” from Aston Chemicals), magnesium ascorbyl phosphate and panax ginseng (“Phytexcell Panax ginseng” from Croda Chemicals Ltd). The antioxidants were tested individually at a particular concentration and in combination. In the test the antioxidant or combination of antioxidants is mixed with a known skin lipid (linoleic acid) and irradiated using UV light. The quantity of peroxides in each sample is measured colourimetrically after irradiation to assess the level of damage caused by peroxidation of the linoleic acid.
A 1% lipid stock solution is prepared dissolving linoleic in an aqueous solution of octoxynol-9 (Triton X-100). Stock solutions in aqueous TBS buffer of the following antioxidants magnesium ascorbyl phosphate, morus alba and panax ginseng were prepared at 15%, 1.0% and 1.0% respectively. […]
Using a micropipette plate 7.5 μl of each sample is pipetted into 3 wells, i.e. in triplicate, and irradiated with UV light for 40 minutes. […] The reaction that occurs causes a colour change from colourless to blue which is measured colourimetrically at 675 nm. The more peroxides present the darker the blue colouration and the higher the observed absorbance.

The results in this text go back to patent publication US7195787B1, “Skincare composition against free radicals” (The Boots Company PLC, priority 1999, dated 2007).

Turning to `O=C1O[C@H]([C@@H](O)CO)C([O-])=C1OP(=O)([O-])[O-].O=C1O[C@H]([C@@H](O)CO)C([O-])=C1OP(=O)([O-])[O-].[Mg+2].[Mg+2].[Mg+2]` [Magnesium ascorbyl phosphate, magnesium ascorbyl phosphate], the Absorbance (675 nm, after 40 minutes UV, 0.5% linoleic acid) is 0.84. Further, the “percentage of peroxidation observed when compared to that seen with the irradiated controls” value (40 minutes UV) is given as above 100%.
